Like-named read-outs stand apart in the source and are kept apart here.

The target of one data set is T1, Rhodesain (TbCatL) (Trypanosoma brucei rhodesiense, UniProt Q95PM0).
T1 construct: stably transformed with the rhodesain ΔC gene cloned into the pPICZαA vector; made in house; host or cells: Pichia pastoris X-33 (pPICZαA, secreted into the culture supernatant)
The data set is described as follows: Fluorimetric rhodesain inhibition assay with Z-Phe-Arg-AMC. The note with it: for Inhibition of rhodesain, in words: SAR discussion; for Mode of inhibition (time dependency, reversibility): from progress curves. It counts as biochemical. Here is the method:
Inhibition of rhodesain was assessed using Z-Phe-Arg-AMC as a fluorogenic substrate. IC50 or KI^app were determined depending on the time dependency of the progress curves. Because a competitive mode of inhibition can be assumed, Ki (for reversible inhibition) and KI (for irreversible inhibition) were calculated using the Cheng–Prusoff equation [30].
Fluorimetric enzyme assays were performed as described in the literature. Information regarding buffers, concentrations, the employed substrate, as well as data analysis for linear and non-linear regression is given in the SI. In short, the cleavage of a fluorogenic substrate by the protease of interest is detected in the presence of different concentrations of inhibitors. […] For the irreversible compound with non-linear regression, the kinetic kinact value was also plotted, from which k2nd was calculated.
To investigate this influence, its inhibition of […]
nucleophilic reducing agent for enzyme activation).
Reversibility assessment for time-dependent inhibitor 9
After this incubation period, the samples
Rhodesain, CatL, CatB Assays
Continuous fluorometric measurements with a Tecan Spark 10M reader in a 96 well plate format was used to evaluate activity. Rhodesain, HsCatB and HsCatL were diluted in their respective activation buffer prior to use. Rhodesain was incubated in this for 30–60 min prior to use. The enzyme of interest (5 µL) was incubated with the inhibitor in question (10 µL), and its specific substrate (5 µL) in the respective assay buffer. The fluorescence signal was measured every 30 s for 10 min at room temperature with the corresponding excitation/emission wavelengths (λex = 380 nm / λem = 460 nm). The final concentrations and buffer compositions are depicted in SI-Table S1. Inner-filter effect corrections were performed as described in literature if deviations >5% were detected.
SI-Table S1: Information on assay conditions. [E] = final enzyme concentration, [S] = final substrate concentration in well.
For the evaluation of 9 in absence of DTT (depicted in SI-Figure S5): 5 nM final rhodesain concentration that was activated before in presence of TCEP (alternative activation buffer: 5 mM DTT → 5 mM TCEP) […]
Time-independent behavior
For inhibitors that behaved time-independently during the measurements (i.e., F-t-diagrams show constant slope), IC50 values using defined dilution series for each compound were calculated with GraphPad PRISM by fitting the remaining enzymatic activity to a four parameter IC50 equation with Y [%] as the residual enzyme activity, Ymax as the maximum value of the dose response curve at inhibitor concentrations [I] = 0 µM, Ymin as the minimum value at high inhibitor concentrations and s as the Hill […]
y [%residual activity]=௬ౣ౗౮ ି௬ౣ౟౤ೞ + y୫୧୬ eq. 1
It is assumed that the inhibitors bind competitively in respect to the substrate. Due to the dependence of the IC50 value on the substrate affinity and concentration, the Ki values were calculated with the Cheng-Prusoff equation, using the final substrate concentration [S] and the Michaelis-Menten constant KM to […]
For inhibitors that behaved time-dependently during the measurements (i.e., F-t-diagrams show reducing slopes over time), KIapp and kinact values using defined dilution series for each compound were calculated

Data set [1] addresses T2, rhodesain (Trypanosoma brucei rhodesiense, UniProt Q95PM0). The data set is described as follows: MALDI-TOF-MS (sinapinic acid matrix) adduct detection. The note with it: 100 µM inhibitor, 10 µM rhodesain, acidic sinapinic acid matrix. Also noted: stably transformed with the rhodesain ΔC gene cloned into the pPICZαA vector; made in house; host or cells: Pichia pastoris X-33 (pPICZαA, secreted into the culture supernatant). It counts as binding. The method, then: Using MALDI-TOF-MS, differentiation between non-covalent and covalent ligand-target complexes is possible if acidic matrices are used that interfere with ionic and dipole interactions (i.e., suppress non-covalent interactions).
Protein mass spectrometry was performed as described before, but also described in detail in the SI. In short, rhodesain was incubated with a surplus of inhibitor under conditions similar to those of the enzyme assays described above to enable complex formation. This sample was desalted and then incorporated into a sinapinic acid matrix, which was then subjected to mass spectrometry. Data analysis was performed using mMass.
Mass spectrometric experiments were performed as described before. Lyophilized rhodesain was first […]
manufacturer’s instructions.
Then, the mixtures were left in the fume hood for cocrystallization until dry.
TOF/TOF mass spectrometer (Bruker Daltonik GmbH, Bremen, Germany). The instrument is equipped […]
cropping from 22–27 kDa was performed.
Baseline was corrected with standard settings. […]

Data set [2] is described as follows: Stability towards general substitution reactions (water, DTT). It counts as physicochemical. Particulars: NH4OAc buffer pH 5.5, with or without DTT; UV spectra and LCMS. The method, then: 0.1 inhibitor concentration
SI-Figure S1: (A) Absorption spectra of 2, 3 and 9 with different concentrations, visualizing a potential need for mathematical correction at high concentrations for nitroanilines. ( B) Experimental proof that mathematical correction of attenuation of AMC fluorescence is only necessary for inhibitor concentrations ≥10 µM. For 2 and 3 at 10 µM attenuation of fluorescence signal is 14 and 11 %, respectively. At concentrations relevant for IC50 evaluation, no relevant interference is detected.
Stability measurements towards general substitution reactions
2, 3 and 9 (from 20 mM stock solutions in DMSO) were diluted into NH4OAc buffer (pH 5.5) to final concentrations of 100 µM, 125 µM or 1 mM and incubated in buffer alone or in presence of as much DTT as present in the fluorimetric rhodesain assay and the MALDI-TOF experiment, respectively. This was recorded with absorption spectroscopy (results depicted in SI-Figure S2) on a Tecan Spark 10M plate reader in UV-transparent 96-well plates (Greiner UV-Star®, 655801, 200 µL volume per sample) or with LCMS (see “measurement setup for LCMS” as described under the method for PAMPA; results depicted […]
system at pH 5.5 over the course of the time necessary for the employed assays. There is a small difference detectable in reactivity of 3 with 5 mM DTT: a slight but time-dependent change in UV-spectrum was found where the maximum at 265 nm decreased in intensity, indicating a small degree of degradation […]
that is not observed with lower DTT concentration or with 2 at all. The formation takes place on a much larger timescale as the time for detection in the assays (minutes vs. hours) and is therefore irrelevant to the performed evaluations. […]
repeated LCMS analysis indicates the formation of the phenol (substitution of fluoride) over the course of hours. This also seems to happen in the DMSO stock solution to a small degree after some usage (explains the presence of phenol at 0 min). Accordingly, in presence of DTT, both the phenol and the thioether are detected by MS for this compound. […]

Data set [3] concerns the target T2, rhodesain. The note with it: 1.5 h incubation (9: 400 µM; K11777: 500 nM), diluted 1:100, n = 2; uninhibited 0.68 ± 0.05 FU/s.
Procedure: rhodesain was reassessed in DTT-free conditions (tris(2-carboxyethyl)phosphine = TCEP used as a non-
The reactivity towards water should not be seriously
To assess reversibility of the time-dependent inhibitor [4], and to therefore discriminate between slow-
reversible and irreversible inhibition, rhodesain was incubated with compound 9 for 1.5 h, at an inhibitor
concentration of 400 µM (7.5x KI) to enable the quantita tive progression of a covale nt irreversible reaction
if one is possible. The same incubation was performed with DMSO alone as a negative control and in
presence of 500 nM K11777 as a positive irreversible control. After this incubation period, the samples
were diluted 1:100 (to 4 µM of compound 9 (0.075x KI)) into assay buffer containing substrate to record
the degree of recovery of enzymatic activity over the course of 10 min.
Raw activity of rhodesain after dilution was

T1 sequence (Q95PM0 entry or part of it): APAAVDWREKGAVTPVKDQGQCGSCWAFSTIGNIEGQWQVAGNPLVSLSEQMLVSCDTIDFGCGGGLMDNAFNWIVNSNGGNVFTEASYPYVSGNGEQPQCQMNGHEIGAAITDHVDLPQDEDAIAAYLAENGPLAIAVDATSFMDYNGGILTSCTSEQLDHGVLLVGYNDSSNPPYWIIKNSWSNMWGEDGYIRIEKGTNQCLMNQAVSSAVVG
T2 sequence (Q95PM0 entry or part of it): as above

Regarding `C[C@H](Nc1cc(F)c([N+](=O)[O-])cc1[N+](=O)[O-])C(=O)N[C@@H](CCc1ccccc1)C(=O)O` [Compound 13], the Ki on Rhodesain (TbCatL) was 13 µM.

On to `CC(C)C[C@H](NC(=O)[C@H](Cc1ccccc1)NC(=O)c1cccc([N+](=O)[O-])c1F)C(=O)O` [Compound 10], for which, on Rhodesain (TbCatL), the Ki came to 14 µM and the “Inhibition of rhodesain, in words” value is on record as “ineffective”.

Take `CC(C)C[C@H](NC(=O)[C@H](Cc1ccccc1)NC(=O)c1ccc(Cl)nc1Cl)C(=O)O` [Compound 8]: at Rhodesain (TbCatL), the Ki is 30 µM and the “Inhibition of rhodesain, in words” value was “did not yield relevant inhibition”.

`CC(C)C[C@H](NC(=O)[C@H](Cc1ccccc1)Nc1ccccc1[N+](=O)[O-])C(=O)O` [Compound 1] returned a Ki on Rhodesain (TbCatL) of 39 µM.

Regarding `CC(C)C[C@H](NC(=O)[C@H](Cc1ccccc1)Nc1cc(Cl)ncn1)C(=O)O` [Compound 6], at Rhodesain (TbCatL), the Ki was found to be 102 µM and the “Inhibition of rhodesain, in words” value was “did not produce an active inhibitor”.

Turning to `CC(C)C[C@H](NC(=O)[C@H](Cc1ccccc1)Nc1cc(F)ccc1[N+](=O)[O-])C(=O)O` [Compound 5], at Rhodesain (TbCatL), the Ki is 44 µM and the “Inhibition of rhodesain, in words” value was “did not result in inhibition”.

On to `CC(C)C[C@H](NC(=O)[C@H](Cc1ccccc1)NC(=O)c1cc([N+](=O)[O-])ccc1F)C(=O)O` [Compound 11], for which, on Rhodesain (TbCatL), the Ki was 13 µM and the “Inhibition of rhodesain, in words” value is listed as “ineffective”.

For the compound `C[C@H](NC(=O)[C@H](CCc1ccccc1)Nc1cc(F)c([N+](=O)[O-])cc1[N+](=O)[O-])C(=O)O` [Compound 16], at Rhodesain (TbCatL), the Ki amounted to 13 µM.

At Rhodesain (TbCatL), `O=C(O)[C@H](CCc1ccccc1)NC(=O)[C@H](Cc1ccccc1)Nc1cc(F)c([N+](=O)[O-])cc1[N+](=O)[O-]` [Compound 17] had a Ki of 6 µM.

In turn, `CC(C)C[C@H](NC(=O)[C@H](Cc1ccccc1)Nc1ccc([N+](=O)[O-])cc1)C(=O)O` [Compound 4] returned a Ki on Rhodesain (TbCatL) of 17 µM.

For the compound `CC(C)C[C@H](NC(=O)[C@H](Cc1ccccc1)Nc1ccc([N+](=O)[O-])c([N+](=O)[O-])c1)C(=O)O` [Compound 2], the “Adduct with rhodesain in MALDI-TOF-MS” value at rhodesain [1] is “no adduct was found”. On Rhodesain (TbCatL), the 50% inhibitory concentration (IC50) is 0.0364 ± 0.0023 µM; the Ki worked out at 0.0028 ± 0.0002 µM; the “Mode of inhibition (time dependency, reversibility)” value (from here on “Mode of inhibition”) was “time-independent”. Besides, the “Reactivity towards unspecific nucleophiles (water and DTT)” value in data set [2] is reported as “no relevant tendency towards either side reaction”.

For the compound `O=C(O)[C@@H](Cc1ccccc1)NC(=O)[C@@H](CCc1ccccc1)Nc1cc(F)c([N+](=O)[O-])cc1[N+](=O)[O-]` [Compound 18], the Ki on Rhodesain (TbCatL) came to 12 µM.

On to `CN1CCN(C(=O)N[C@@H](Cc2ccccc2)C(=O)N[C@H](/C=C/S(=O)(=O)c2ccccc2)CCc2ccccc2)CC1` [Compound K11777, reference compound], for which, on rhodesain [3], the “Activity of rhodesain after incubation and subsequent dilution” value was −0.01 ±0.00 FU/s. Besides, on rhodesain [1], the “Adduct with rhodesain in MALDI-TOF-MS” value is reported as “showed the expected mass shift representative of covalent adduct formation”.

For the compound `CC(C)C[C@H](NC(=O)[C@H](Cc1ccccc1)NC(=O)c1cc([N+](=O)[O-])c(Cl)cc1[N+](=O)[O-])C(=O)O` [Compound 12], at Rhodesain (TbCatL), the Ki turned out to be 25 µM and the “Mode of inhibition” value is listed as “abolished the time-dependent mode of inhibition”.

For `CC(C)C[C@H](NC(=O)[C@H](Cc1ccccc1)NC(=O)Nc1ccc(F)c([N+](=O)[O-])c1)C(=O)O` [Compound 7], at Rhodesain (TbCatL), the Ki was found to be 50 µM and the “Inhibition of rhodesain, in words” value is “did not produce an active inhibitor”.

With `CC(C)C[C@H](NC(=O)[C@H](Cc1ccccc1)Nc1cc(F)c([N+](=O)[O-])cc1[N+](=O)[O-])C(=O)O` [Compound 3], on rhodesain [1], the “Adduct with rhodesain in MALDI-TOF-MS” value is listed as “an adduct corresponding to the mass of the inhibitor was observed”. At Rhodesain (TbCatL), half-maximal inhibition (IC50) required 0.0245 ± 0.0017 µM; the Ki amounted to 0.0019 ± 0.0001 µM; the “Mode of inhibition” value was “time-independent”. In addition, the “Reactivity towards unspecific nucleophiles (water and DTT)” value in data set [2] is reported as “no relevant tendency towards either side reaction”.

Consider “N-(5-fluoro-2,4-dinitrobenzoyl)-L-phenylalanyl-L-leucine [Compound 9]”, for which the “Activity of rhodesain after incubation and subsequent dilution” value at rhodesain [3] is listed as −0.01 ±0.00 FU/s. In addition, the “Adduct with rhodesain in MALDI-TOF-MS” value on rhodesain [1] is “An adduct was also found for 9, albeit with a shift lower than the mass of the inhibitor”. In addition, the Ki on Rhodesain (TbCatL) (DTT-free conditions, TCEP for enzyme activation, read-out: KIapp) was 200 µM; on Rhodesain (TbCatL) (KI, irreversible time-dependent inhibition, from KI^app by Cheng–Prusoff, read-out: Ki or KI), 53 µM; on Rhodesain (TbCatL) (standard conditions with DTT, read-out: KIapp) it was 700 µM. In addition, the “Mode of inhibition” value at Rhodesain (TbCatL) is reported as “irreversible”. The “Reactivity towards unspecific nucleophiles (water and DTT)” value in data set [2] is reported as “relevant reactivity towards unspecific nucleophiles”.

At Rhodesain (TbCatL), `C[C@@H](Nc1cc(F)c([N+](=O)[O-])cc1[N+](=O)[O-])C(=O)N[C@H](CCc1ccccc1)C(=O)O` [Compound 15] registered a Ki of 22 µM.

At Rhodesain (TbCatL), `C[C@@H](NC(=O)[C@@H](CCc1ccccc1)Nc1cc(F)c([N+](=O)[O-])cc1[N+](=O)[O-])C(=O)O` [Compound 14, ((R)-2-((5-fluoro-2,4-dinitrophenyl)amino)-4-phenylbutanoyl)-D-alanine] gave a Ki of 27 µM.

Source of the values: publication PMC11173422, “Substitution-Induced Mechanistic Switching in SNAr-Warheads for Cysteine Proteases” (Molecules, 2024).
